Drawing on US6369222B1, “mGluR antagonists and a method for their synthesis” (Hoffmann-La Roche Inc., priority 2000, dated 2002), this text covers IC50 and melting point for eight molecules.

As usually defined, the IC50 is the concentration that gives 50% inhibition. Broadly, the melting point is the temperature, or range, at which the solid turns liquid.

Data set [1] concerns the target T1, rat mGluR1a receptor (Rattus norvegicus, UniProt P23385).
T1 construct: expressed in transfected cells; host or cells: HEK 293 cells, transient transfection; membranes used
The experiment in a line: Binding assay for the characterization of mGluR 1 antagonistic properties (displacement of tritiated 1-ethyl-2-methyl-6-oxo-4-(1,1,2-tritritio-1,2,4,5-tetrahydro-benzo[d]azepin-3-yl)-1,6-dihydro-pyrimidine-5-carbonitrile). Conditions: membranes of HEK 293 cells transiently transfected with rat mGluR1a, 10 μg protein per assay; radioligand 3 nM; 1 hour at room temperature; read-out: B-IC50. How it is done: Binding Assay for the Characterization of mGluR 1 Antagonistic Properties
Binding assay with tritiated 1-ethyl-2-methyl-6-oxo-4-(1,1,2-tritritio-1,2,4,5-tetrahydro-benzo[d]azepin-3-yl)-1,6-dihydro-pyrimidine-5-carbonitrile: HEK 293 cells were transiently transfected with the rat mGluR1a receptor. The cells were collected and washed 3 times with PBS. The cell pellets were frozen at −80° C. Membranes were prepared from HEK 293 cells transfected with the rat mGluR1a receptor and used in the binding experiments at 10 μg proteins per assay after resuspension in a HEPES NaOH 20 mM, pH=7.4 binding buffer. 1-Ethyl-2-methyl-6-oxo-4-(1,1,2-tritritio-1,2,4,5-tetrahydro-benzo[d]azepin-3-yl)-1,6-dihydro-pyrimidine-5-carbonitrile (S.A. 33.4 Ci/mmol) was used at 3 nM final concentration. The incubation with variable concentrations of potential inhibitors was performed for 1 hour at room temperature, the incubate was then filtered onto GF/B glass fiber filter preincubated 1 hour in PEI 0,1% and washed 3 times with 1 ml of cold binding buffer. The radioactivity retained on the unifilter 96 was counted using a Topcount β counter. After correction for non specific binding the data were normalized and the IC50 value calculated using a 4 parameters logistic equation which was fitted to the inhibition curve.

T1 sequence (P23385 19-1199): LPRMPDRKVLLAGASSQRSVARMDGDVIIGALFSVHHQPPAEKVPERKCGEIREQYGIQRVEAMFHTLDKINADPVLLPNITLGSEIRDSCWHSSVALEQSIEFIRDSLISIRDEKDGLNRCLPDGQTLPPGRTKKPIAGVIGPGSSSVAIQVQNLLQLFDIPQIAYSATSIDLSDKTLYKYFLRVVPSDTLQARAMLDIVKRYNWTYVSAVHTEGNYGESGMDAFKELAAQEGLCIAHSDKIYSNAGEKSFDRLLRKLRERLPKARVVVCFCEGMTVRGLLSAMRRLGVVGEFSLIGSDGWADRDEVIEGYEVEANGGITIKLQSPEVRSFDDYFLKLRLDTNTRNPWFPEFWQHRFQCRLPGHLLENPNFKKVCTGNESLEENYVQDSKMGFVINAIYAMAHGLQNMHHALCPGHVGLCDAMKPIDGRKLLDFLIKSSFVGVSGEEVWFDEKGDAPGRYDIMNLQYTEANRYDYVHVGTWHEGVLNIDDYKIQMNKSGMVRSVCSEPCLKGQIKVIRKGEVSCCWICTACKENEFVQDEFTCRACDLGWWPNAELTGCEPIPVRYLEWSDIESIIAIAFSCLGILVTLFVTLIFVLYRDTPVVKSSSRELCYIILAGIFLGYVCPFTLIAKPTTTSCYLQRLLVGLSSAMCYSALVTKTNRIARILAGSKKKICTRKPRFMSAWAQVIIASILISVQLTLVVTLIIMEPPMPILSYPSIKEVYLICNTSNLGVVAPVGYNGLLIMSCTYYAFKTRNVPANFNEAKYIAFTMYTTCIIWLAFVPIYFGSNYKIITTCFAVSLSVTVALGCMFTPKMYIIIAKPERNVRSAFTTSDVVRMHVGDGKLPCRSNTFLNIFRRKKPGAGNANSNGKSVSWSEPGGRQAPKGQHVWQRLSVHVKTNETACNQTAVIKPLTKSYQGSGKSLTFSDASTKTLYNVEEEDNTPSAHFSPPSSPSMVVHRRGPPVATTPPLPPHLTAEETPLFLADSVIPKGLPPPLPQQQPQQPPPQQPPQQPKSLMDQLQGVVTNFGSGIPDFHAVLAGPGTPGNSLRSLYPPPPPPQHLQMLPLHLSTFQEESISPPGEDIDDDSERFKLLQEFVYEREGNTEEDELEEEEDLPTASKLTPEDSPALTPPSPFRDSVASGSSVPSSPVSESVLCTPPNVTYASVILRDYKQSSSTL

Molecule `CCn1c(C)nc(N2CCc3nc(N)sc3CC2)c([N+](=O)[O-])c1=O` [Example 4, 6-(2-Amino-4,5,7,8-tetrahydro-thiazolo[4,5-d]azepin-6-yl)-3-ethyl-2-methyl-5-nitro-3H-pyrimidin-4-one] returned a melting point of more than 200 °C. Also, in data set [1], the IC50 stood at 6 µM.
Take `Cc1nc(N2CCc3ncsc3CC2)c([N+](=O)[O-])c(=O)[nH]1` [Example 6, 2-Methyl-5-nitro-6-(4,5,7,8-tetrahydro-thiazolo[4,5-d]azepin-6-yl)-3H-pyrimidin-4-one]: in data set [1], the IC50 worked out at 43 µM.
`Cc1nc(N2CCc3ccsc3CC2)c([N+](=O)[O-])c(=O)[nH]1` [Example 9, 2-Methyl-5-nitro-6-(4,5,7,8-tetrahydro-thieno[2,3-d]azepin-6-yl)-3H-pyrimidin-4-one] displayed a melting point of more than 200 °C. Also, the IC50 in data set [1] came out at 1.9 µM.
In the same order, the values of `Cc1nc(N2CCc3nc(C)sc3CC2)c([N+](=O)[O-])c(=O)[nH]1` [Example 1, 2-methyl-6-(2-methyl-4,5,7,8-tetrahydro-thiazolo[4,5-d]azepin-6-yl)-5-nitro-3H-pyrimidin-4-one] are more than 200 °C and 30 µM.
On the same counts, the results for `Cc1nc(N2CCc3nc(N)sc3CC2)c([N+](=O)[O-])c(=O)[nH]1` [Example 3, 6-(2-Amino-4,5,7,8-tetrahydro-thiazolo[4,5-d]azepin-6-yl)-2-methyl-5-nitro-3H-pyrimidin-4-one] are more than 200 °C and 49 µM.
Molecule `CCn1c(C)nc(N2CCc3nc(C)sc3CC2)c([N+](=O)[O-])c1=O` [Example 2, 3-Ethyl-2-methyl-6-(2-methyl-4,5,7,8-tetrahydro-thiazolo[4,5-d]azepin-6-yl)-5-nitro-3H-pyrimidin-4-one] showed a melting point of 164.2 to 166.8 °C.
Same read-out and setting: with `Cc1nc(O)c([N+](=O)[O-])c(N2CCc3cncnc3CC2)n1` [Example 7, 2-Methyl-5-nitro-6-(5,6,8,9-tetrahydro-pyrimido[4,5-d]azepin-7-yl)-pyrimidin-4-ol] the figure was more than 200 °C; with `Cc1nc(O)c2c(n1)CCN(c1nc(C)nc(O)c1[N+](=O)[O-])CC2` [Example 5, 7-(6-Hydroxy-2-methyl-5-nitro-pyrimidin-4-yl)-2-methyl-6,7,8,9-tetrahydro-5H-pyrimido[4,5-d]azepin-4-ol], more than 200 °C.
